Results taken from patent publication US20230082311A1, “DRUG FOR CURATIVE THERAPY OF INTRACTABLE HEREDITARY RENAL ALPORT SYNDROME” (NATIONAL UNIVERSITY CORPORATION KUMAMOTO UNIVERSITY, priority 2019, published 2023).
*1 amine or outer side, *2 acyl side, *3 side chain or, on linkers, in order; H or OH if unused. Where a SMILES comes first, the peptide text is derived from it. [ ]: non-standard residue; d: D form. X1 = COCCN1CCN(C[C@H](C)[C@@H](C(=O)[*:2])N(C)[*:1])CC1; MeBmt = C/C=C/C[C@@H](C)[C@@H](O)[C@H](NC)C(=O)O; NMeL = CN[C@@H](CC(C)C)C(=O)O; NMeV = CN[C@H](C(=O)O)C(C)C; dNMeA = CN[C@H](C)C(=O)O; Abu = CC[C@H](N)C(=O)O

What was measured:
[1] = system: α345 (COL4A5-G1244D) collagen trimer; assay: Type IV collagen α345 trimer assay by Nano luciferase, COL4A5-G1244D stable line; format: cell-based, Human; settings: for secretion level of collagen trimer as a function of concentration: COL4A5 (G1244D), concentration series up to 10 μM, FIG. 1-3; for collagen trimer secretion (luminescence of culture supernatant, ratio to DMSO-treated group): HEK293T line stably expressing α345 (COL4A5-G1244D), 24 hr treatment
Protocol: (§1) HEK293T cells (Human Embryonic Kidney 293) were obtained from the RIKEN Cell Bank, and thereafter addition of virus concentration solution for COL4A4-3FLAG (Puro), COL4A3-SmBiT (Hyg), COL4A5-LgBiT (BSD) (Omachi K. et al., Cell Chemical Biology 2018, 25, 634-643) in this order, exchange of drug resistance containing medium, passage and preservation of surviving cells were repeated whereby a cell line stably expressing α345 (IV) trimer was generated. COL4A5 variant G1244D was prepared using pLVSIN EF1α BSD COL4A5-LgBiT as a template and using Quikchange (registered trade mark) II Site-directed Mutagenesis Kit (STRATAGENE (registered trade mark)). The primers used were follows. PCR reactions (95° C. for 1 min, one cycle; 95° C. for 50 sec, 60° C. for 50 sec, 68° C. for 90 sec/1 kb, 18 cycles; 68° C. for […]) were performed with each Primer. The base sequence of DNA was confirmed by the cycle sequence method (Sigma-Aldrich JAPAN).
(§2) A cell line stably expressing split nano luciferase-fused α345 required for the NanoLuc α345 trimer assay was seeded on LumiNuc 96 well white plate (Thermo). After 24 hr, the cells were cultured in phenol red-free DMEM complete medium containing 2-phosphate ascorbic acid (200 μM), substrates were added to the culture supernatant and cells according to the standard method of NanoGlo live cell assay (Promega) reagent, and luminescence was confirmed with luminometer GloMax Navigator (Promega).
The cell line stably expressing α345 (COL4A5-G1244D) was detached and seeded on LumiNuc 96 well white plate (Thermo) at a density of 2×10^4 cells/well. 24 hr after seeding, the medium was exchanged with a phenol red-free DMEM complete medium containing 2-phosphate ascorbic acid (200 μM) and each concentration of cyclosporin A (CsA) (0.1, 0.5, 1, 2, 5, 10 μM), or each concentration of PSC-833 (0.5, 1, 2, 5, 10 μM), or each concentration of Alisporivir (0.1, 0.5, 5, 10 μM) and the cells were cultured. A substrate was added 24 hr later to the culture supernatant according to the standard method of NanoGlo live cell assay (Promega) reagent, and luminescence (index of trimer secretion) was measured by luminometer GloMax Navigator (Promega). The control solvent (CON) used was dimethyl sulfoxide (DMSO).

[2] = system: α3WT/α4WT/α5WT collagen trimer (COL4a5/WT); assay: Type IV collagen α345 trimer assay by Nano luciferase, wild-type COL4A5 stable line; format: cell-based, Human; settings: wild-type stable cell line, FIG. 5 upper
Protocol: as §1, with “The base sequence of DNA was confirmed by the cycle sequence method (Sigma-Aldrich JAPAN).” left out
as §2, with “(Promega). […]” for “(Promega).”

[3] = system: α3WT/α4WT/α5G1241V collagen trimer (COL4a5/G1241V); format: cell-based, Human
[4] = system: COL4A5 AS mutants (G227S, G594D, G624D, G869R, S916G, G1030S, G1107R, G1140V, G1220D, G1241C, G1241V, G1244D, P1517T, R1569Q) and Exon41-deleted variant; format: cell-based, Human; settings: panel of 14 AS mutants, Exon41-deleted variant and wild type, FIG. 7
PPIF (cyclophilin D) [5] = biological target: T1, PPIF (cyclophilin D) (Homo sapiens, UniProt P30405); assay: Collagen trimer secretion promotion in G1244D HEK293T cells with cyclophilins knocked down with siRNA; format: cell-based; settings: siRNA 15 nM against 11 cyclophilins, CsA 1 μM, Alisporivir 2 μM, FIG. 8
T1 construct: endogenous in cells; host or cells: HEK293T stably expressing split-NanoLuc alpha345 (COL4A5-G1244D), with or without siRNA knock-down
Description: To elucidate the mechanism of collagen trimer secretion promotion by CsA and Alisporivir, cells in which cyclophilins to which CsA and Alisporivir can bind were knocked down with siRNA were produced, and the collagen trimer secretion promoting effect by CsA and Alisporivir in the cells was investigated comprehensively.
As the cells, G1244D mutation-introduced HEK293T cells—for which the effect of CsA and Alisporivir were confirmed in previous experiments—were used.
(§3) An cell line stably expressing split nano luciferase-fused α345 required for the NanoLuc α345 trimer assay was seeded on a 6 well plate (Corning) at 3×10^5 cells/well, and the siRNAs shown in Table 1 were introduced by lipofection at the time of subconfluence. The target genes are all cyclophilins, and the abbreviations in Table 1 indicate the following substances.
Lipofectamine RNAi Max was used for transfection of siRNA. The final siRNA concentration was adjusted to 15 nM, and transfection was performed according to the standard protocol. 24 hr after siRNA introduction, the cells were detached and reseeded on a LumiNuc 96 well white plate (Thermo) at 4×10^4 cells/well. […] Substrates were added 24 hr later to the culture supernatant and cells according to the standard method of NanoGlo live cell assay (Promega) reagent, and luminescence (index of trimer secretion) was measured by luminometer GloMax Navigator (Promega). […]

calcineurin = settings: cited from earlier work
[6] = clinical trials (Zeuzem 2015; Buti 2015); cited from earlier work
PPIF (cyclophilin D) [7] = biological target: T1, PPIF (cyclophilin D); assay: Collagen trimer secreting ability of G1244D HEK293T cells after knock-down of cyclophilins with siRNA; format: cell-based; settings: G1244D mutant-transfected HEK293T cells, FIG. 9
Protocol: as §3
Lipofectamine RNAi Max was used for transfection of siRNA. The final siRNA concentration was adjusted to 15 nM, and transfection was performed according to the standard protocol. 24 hr after siRNA introduction, the cells were detached and reseeded on a LumiNuc 96 well white plate (Thermo) at 4×10^4 cells/well. 24 hr thereafter, the medium was exchanged with a phenol red-free DMEM complete medium containing 2-phosphate ascorbic acid (200 μM) and Cyclosporin A (CsA) (1 μM), or Alisporivir (2 μM) and the cells were cultured. Substrates were added 24 hr later to the culture supernatant and cells according to the standard method of NanoGlo live cell assay (Promega) reagent, and luminescence (index of trimer secretion) was measured by luminometer GloMax Navigator (Promega). The control solvent (CON) used was DMSO. […]

T1 sequence (P30405 30-207): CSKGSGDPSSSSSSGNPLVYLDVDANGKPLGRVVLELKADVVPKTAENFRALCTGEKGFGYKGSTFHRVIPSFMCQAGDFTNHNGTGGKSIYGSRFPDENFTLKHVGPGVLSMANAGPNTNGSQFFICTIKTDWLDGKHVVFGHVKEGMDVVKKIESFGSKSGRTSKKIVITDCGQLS

C/C=C/C[C@@H](C)[C@@H](O)[C@H]1C(=O)N[C@@H](CC)C(=O)N(C)[C@H](C)C(=O)N(CC)[C@@H](C(C)C)C(=O)N[C@@H](C(C)C)C(=O)N(C)[C@@H](CC(C)C)C(=O)N[C@@H](C)C(=O)N[C@H](C)C(=O)N(C)[C@@H](CC(C)C)C(=O)N(C)[C@@H](CC(C)C)C(=O)N(C)[C@@H](C(C)C)C(=O)N1C [Alisporivir]
secretion level of collagen trimer as a function of concentration [1]: increases depending on the concentration of Alisporivir
action of promoting collagen trimer secretion compared with CsA ([1]; COL4A5-G1244D, concentrations of 5 μM and 10 μM, FIG. 4): stronger action of promoting collagen trimer secretion than CsA
collagen trimer secretion (luminescence of culture supernatant, ratio to DMSO-treated group) [1]: showed an action of promoting collagen trimer secretion
secretion of trimers of COL4a5/WT-containing collagen [2]: did not show an influence on COL4a5/WT
extracellular secretion of collagen trimers, COL4a5/G1241V ([3]; G1241V stable cell line, FIG. 5 lower): promoted extracellular secretion of collagen trimers
collagen trimer secretion in COL4A5 variants [4]: exhibited a significant effect in G1030S, G1107R, G1220D, G1241C, G1241V, G1244D, and Exon41-deleted variants
effect of promoting the secretion of collagen trimers in cyclophilin knock-down cells (PPIF (cyclophilin D) [5]): decreased only in the cells knocked down with PPIF (cyclophilin D)
calcineurin inhibition (calcineurin): does not inhibit calcineurin
nephrotoxicity in clinical trials [6]: no nephrotoxicity

C/C=C/C[C@@H](C)[C@@H](O)[C@H]1C(=O)N[C@@H](CC)C(=O)N(C)[C@H](C)C(=O)N(C)[C@@H]([C@@H](C)CN2CCN(CCOC)CC2)C(=O)N[C@@H](C(C)C)C(=O)N(C)[C@@H](CC(C)C)C(=O)N[C@@H](C)C(=O)N[C@H](C)C(=O)N(C)[C@@H](CC(C)C)C(=O)N(C)[C@@H](CC(C)C)C(=O)N(C)[C@@H](C(C)C)C(=O)N1C [NIM258] (cyclo(A[dA][NMeL][NMeL][NMeV][MeBmt][Abu][dNMeA][X1]V[NMeL]))
extracellular secretion of collagen trimer compared with DMSO-administered group ([3]; 5 μM or 10 μM, G1241V cell line per FIG. 6): extracellular secretion of collagen trimers was promoted
calcineurin inhibition (calcineurin): does not inhibit calcineurin

C/C=C/C[C@@H](C)C(=O)[C@H]1C(=O)N[C@@H](C(C)C)C(=O)N(C)CC(=O)N(C)[C@@H](CC(C)C)C(=O)N[C@@H](C(C)C)C(=O)N(C)[C@@H](CC(C)C)C(=O)N[C@@H](C)C(=O)N[C@H](C)C(=O)N(C)[C@@H](CC(C)C)C(=O)N(C)[C@@H](CC(C)C)C(=O)N(C)[C@@H](C(C)C)C(=O)N1C [PSC-833]
secretion level of collagen trimer as a function of concentration [1]: does not increase even when the amount of PSC-833 is increased to 10 μM
intracellular expression level of collagen trimer ([1]; COL4A5-G1244D line, PSC-833 0.5-10 μM): did not affect
collagen trimer secretion (luminescence of culture supernatant, ratio to DMSO-treated group) [1]: did not affect collagen trimer secretion
calcineurin inhibition (calcineurin): does not inhibit calcineurin

siPPIF: siRNA against human PPIF (cyclophilin D), sense GGCAGAUGUCGUCCCAAAG, antisense CUUUGGGACGACAUCUGCC (SEQ ID NO: 27/28) (listed as RNA, chemistry not given here)
secretion level of collagen trimer, ratio to siGL2-treated group (PPIF (cyclophilin D) [7]): promotion of collagen trimer secretion was confirmed
